Results reported in patent US20220267350A1, “ADENOSINE RECEPTOR ANTAGONIST” (XIAMEN BIOTIME BIOTECHNOLOGY CO., LTD., priority 2019, published 2022).
pIC50: −log10 of the molar value.

Experiments:
A2A receptor = A2A receptor (Homo sapiens, UniProt P29274); assay: A2A receptor antagonist functional assay (cAMP, NECA at EC80); format: cell-based; conditions: A2A cell line (PerkinElmer ES-011-C); 5'-N-ethylcarboxamidoadenosine at EC80; cAMP readout; read-out: A2A Antagonistic function IC50
Description: (§1) The A2A cell line was derived from PerkinElmer (Product ID: ES-011-C); the A2B cell line was derived from PerkinElmer (Product ID: ES-013-C). The experimental procedure was referred to ACS Medicinal Chemistry Letters (2011) 2, 213-218; the specific test was completed by Pharmaron Beijing Co., Ltd. with the following steps: 10 nL of compound stock in DMSO (10 mM) followed by 10 μL of A2A or A2B cell suspension (30000 cells/mL) were transferred to assay wells of a 384-well plate at room temperature and incubated for 20 minutes at room temperature. The corresponding amount of 5′-N-ethylcarboxamidoadenosine at EC80 activation concentration was transferred to each test well, and incubated for another 30 minutes at 37° C., 5% CO2, 95% humidity, then Eu-cAMP tracer working solution and Ulight-anti-cAMP working solution were added to the cell culture plate at 5 uL/well in sequence, and the cell plate fluorescence was read with Envision (excitation wavelength: 320 nm, emission wavelength: 665 nm and 615 nm). The corresponding inhibition rate in each well was obtained according to the following formula, and a sigmoidal dose-inhibition rate curve was plotted using a non-linear regression model to calculate the IC50 value.

A2B receptor = molecular target: T1, A2B receptor (Homo sapiens, UniProt P29275); assay: A2B receptor antagonist functional assay (cAMP, NECA at EC80); format: cell-based; conditions: A2B cell line (PerkinElmer ES-013-C); 5'-N-ethylcarboxamidoadenosine at EC80; cAMP readout; read-out: A2B Antagonistic function IC50
T1 sequence (P29275 1-332): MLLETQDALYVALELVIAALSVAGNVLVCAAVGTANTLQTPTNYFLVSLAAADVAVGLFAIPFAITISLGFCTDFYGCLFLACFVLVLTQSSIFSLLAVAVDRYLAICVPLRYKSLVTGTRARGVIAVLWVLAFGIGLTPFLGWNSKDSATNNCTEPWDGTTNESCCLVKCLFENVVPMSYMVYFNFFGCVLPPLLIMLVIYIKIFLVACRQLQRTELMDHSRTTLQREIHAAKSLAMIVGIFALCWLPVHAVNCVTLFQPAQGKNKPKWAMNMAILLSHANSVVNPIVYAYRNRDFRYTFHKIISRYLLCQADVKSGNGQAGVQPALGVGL
Description: as §1

A2A receptor, sequence (P29274 whole entry): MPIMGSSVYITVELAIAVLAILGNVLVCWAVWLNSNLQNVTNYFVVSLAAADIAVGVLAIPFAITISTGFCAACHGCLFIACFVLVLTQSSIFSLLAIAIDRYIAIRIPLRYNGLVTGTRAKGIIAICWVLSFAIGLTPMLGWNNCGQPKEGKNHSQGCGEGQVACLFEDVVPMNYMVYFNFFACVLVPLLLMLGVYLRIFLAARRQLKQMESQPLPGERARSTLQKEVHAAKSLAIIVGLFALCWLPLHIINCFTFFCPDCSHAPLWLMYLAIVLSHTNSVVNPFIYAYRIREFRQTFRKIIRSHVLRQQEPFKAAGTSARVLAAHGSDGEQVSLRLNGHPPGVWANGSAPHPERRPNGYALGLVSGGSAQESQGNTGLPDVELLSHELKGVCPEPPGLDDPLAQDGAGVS

| SMILES | pIC50 (A2A receptor) | pIC50 (A2B receptor) |
| --- | --- | --- |
| COc1ccc(Cc2noc3c(-c4ccc(C)o4)nc(N)nc23)cc1 [Compound 3] | 6.92 |  |
| Cc1ccc(-c2nc(N)nc3c(Cc4ccc(Cl)cc4)noc23)o1 [Compound 5] | 7.50 |  |
| Cc1ccc(-c2nc(N)nc3c(Cc4cccc(O)c4)noc23)o1 [Compound 7] | 7.96 | 7.96 |
| Cc1ccc(-c2nc(N)nc3c(Cc4ccc(O)cc4)noc23)o1 [Compound 8] | 7.10 |  |
| Cc1ccc(-c2nc(N)nc3c(Cc4ccccc4O)noc23)o1 [Compound 9] | 7.99 |  |

Now those with a higher pIC50 (A2A receptor), led by results:

| pIC50 (A2A receptor) | pIC50 (A2B receptor) | SMILES |
| --- | --- | --- |
| 8.42 | 6.83 | COc1cccc(Cc2noc3c(-c4ccc(C)o4)nc(N)nc23)c1 [Compound 1] |
| 8.15 |  | Cc1ccc(-c2nc(N)nc3c(Cc4ccc(F)cc4)noc23)o1 [Compound 2] |
| 8.16 |  | COc1ccccc1Cc1noc2c(-c3ccc(C)o3)nc(N)nc12 [Compound 4] |
| 8.43 |  | Cc1ccc(-c2nc(N)nc3c(Cc4cccc(Cl)c4)noc23)o1 [Compound 6] |
